Data reported in patent US20190300911A1, “METHODS FOR INCREASING THE FREQUENCY OF GENE TARGETING BY CHROMATIN MODIFICATION” (FRIEDRICH MIESCHER INSTITUTE FOR BIOMEDICAL RESEARCH, priority 2016, published 2019).
Where a SMILES comes first, the peptide text is derived from it. The star is where a group is joined. Cbz = O=C(OCc1ccccc1)*

What was measured:
proteasome = target: T1, proteasome (Saccharomyces cerevisiae, UniProt P23724+P30656); assay: Suppression of damage-induced histone degradation by proteasome inhibition; type: cell-based; conditions: Zeocin-damaged cells
T1 construct: endogenous in cells; host or cells: Saccharomyces cerevisiae (budding yeast) cells treated with Zeocin

[1] = system: core histones H2A, H2B, H3 and H4; assay: Quantitative SILAC mass spectrometry of histone abundance before and after Zeocin; type: cell-based, Saccharomyces cerevisiae; conditions: acute treatment (1 hour) with Zeocin
Protocol: For SILAC based mass spectrometry, lysine and arginine double labeling of the lys2A arg4A strain yAG-06A was achieved by growth for at least ten generations in “heavy” medium as described previously in Gruhler et al. 34. After growth to LOG phase or at G1 cell cycle arrest, “light” labeled cells (or “heavy” labeled cells for label-swap controls) were treated for 1 h with Zeocin and mixed 1:1 based on exact cell count with “heavy” labeled (“light” for label-swap control), non-treated control cells. Prior to mixing, FACS and Western blot samples were taken to test for cell cycle distribution and DDC activation.
Chromatin fractionation was performed as previously described with the modification that chromatin obtained from SILAC labeled yeast samples was resuspended in Urea Buffer (50 mM TRIS pH 7.5, 6 M Urea, 1% SDS, 5 mM EDTA) sonicated for optimal solubilizing of proteins followed by a TCA protein precipitation step prior to downstream mass spectrometric analysis. To avoid carbamylation in urea buffer, samples were kept below 20° C. and quickly processed. Control samples from whole cell extract (WCE), supernatant (SUP) and chromatin fraction (CHR) were analyzed with SDS-PAGE (Novex 8-16% Tris-Glycine Gel, Invitrogen) gel electrophoresis followed by Coomassie staining. […]

histone H3/H4 = assay: Quantitative immunoblot analysis of histone H3/H4 loss and DDC activation; type: cell-based, Saccharomyces cerevisiae
Protocol: The total protein content in the relevant samples was determined with the Quant-iT protein assay kit (Thermo Scientific) and 8.75 μg of total protein was loaded and run on Criterion TGX Stain-Free 8-16% (Biorad) gels under SDS denaturing electrophoresis conditions. Rapid fluorescent detection of all proteins in the gel or on the membrane was done according to the manufacturer's specifications and protein transfer on PVDF membranes was performed using the Trans-Blot Turbo system. Rad53 protein was detected using a custom-made mouse monoclonal antibody (GenScript) against FHA2 domain of Rad53. Anti-yH2A was similarly a custom-made polyclonal antibody, that is specific for phospho-S129 in yeast H2A.

nucleosome occupancy = assay: Genome-wide nucleosome mapping (MNase-seq with Candida glabrata spike-in); type: cell-based, Saccharomyces cerevisiae; conditions: Zeocin 500 μg/ml for 1 hour; reads normalized to C. glabrata
Protocol: Strains tested for changes in nucleosome occupancy (GA-6879 and GA-8386) were grown in appropriate media to OD600=0.8. Cultures were split into two and one of them was treated with Zeocin (500 μg/ml) for 1 hour. At this point the OD600 absorbance of each sample was measured and Candida glabrata cells were spiked in to 1/10 according to the sample OD600. Cells were washed three times with ice cold TBS (20 MM Tris.HCl pH8.0 and 150 mM NaCl) and lysed by beat beating in MNase digestion buffer (10 mM Tris pH 8.0, 50 mM NaCl, 5 mM MgCl2, 1 mM CaCl2), 1 mM beta-mercaptoethanol, 0.5 mM spermidine, 0.075% NP40). The obtained chromatin samples were MNase digested to isolate mono-nucleosomes and sequencing libraries were prepared according to the method described in Wiechens, N. et al. (Wiechens et al. 2016). Paired end libraries of MNase digested chromatin were sequenced using Illumina HiSeq technology. Fastq files containing raw reads were aligned to the S. cerevisiae and C. glabrata reference genomes by Bowtie2 with option of maximum fragment length 500 for nucleosome fragments. The nucleosome dyads at each position were calculated in a defined window flanking the transcription start site (TSS). […] The reads were further normalized by dividing the fraction of C. glabrata reads in the sample. […]

Histone H3 (H3-CFP) = assay: Time-lapse live cell tracking of H3-CFP in microfluidic chambers; type: cell-based, Saccharomyces cerevisiae
Protocol: For H3-CFP (Strain GA-3364 and derivatives) and 2-foci (Strain GA-9777) live cell fluorescent microscopy, LOG phase cells were trapped with 3 pulses of 5 psi pressure in CellASIC plates of the ONIX microfluidic perfusion system (Merck Millipore). All perfusions were done at a continuous flow rate of 2 psi pressure. After a 20-30 minute recovery phase, cells were treated for 30 minutes with the indicated amount of Zeocin prior to high-speed CFP-RFP tracking microscopy. The recovery phase of H3-CFP tagged cells was 20 minutes after which they were treated with a pulse of Zeocin for 1 hour and H3-CFP fluorescence was followed for additional 40 minutes after treatment.
Live microscopy was done on a temperature controllable Olympus IX81 microscope with a Yokogawa CSU-X1 scanning head equipped with two EM-CCD EvolveDelta (Photometrics) cameras, an ASI MS-2000 Z-piezo stage and a PlanApo x100, NA 1.45 total internal reflection fluorescence microscope oil objective and Visiview software. For mRFP-GFP or mRFP-CFP high-speed tracking, fluorophores were excited with lasers at 561 nm (mCherry or mRFP) and 491 nm (GFP) or 440 nm (CFP) and emitted fluorescence was acquired simultaneously on separate cameras (Semrock FF01-617/73-25 filter for mCherry/mRFP and Semrock FF02-525/40-25 filter for GFP or Semrock FF01-475/42-25 for CFP). High-speed time-lapse series were conducted taking 8 optical slices per stack either every 80 ms for 1 min or 300 ms for 2 min, with 10 ms exposure times per slice respectively. Time-lapse image stacks were analyzed as in Dion et al. 9, using a custom made ImageJ (FIJI) plug-in36 to extract coordinates of locus position from the movies. Phototoxicity was tested by exposing wild-type cells (GA-6879) to standard imaging conditions and following outgrowth for 5 h by morphological analysis, comparing them with unexposed cells. […] Boxplot graphs were generated by plotting all measured distances of treated or untreated cells. […] For each frame, the distance vector of tracks in two channels was measured by selecting the two spots with minimal distance. […]

S phase chromatin = assay: Super-resolution microscopy of TetR-mCherry tagged locus 3D volume (chromatin expansion); type: cell-based, Saccharomyces cerevisiae; conditions: cells fixed 30 min after exposure to different amounts of Zeocin
From the text: Structured illumination images were acquired on a Zeiss Elyra S.1 microscope with a Andor iXon 885 EMCCD camera using a HR diode 488 […] solid state laser, BP 525-580+LP 750 filter and a PLAN-APOCHROMAT 63×N.A. 1.4 oil DIC objective lens. Cells were first fixed in PFA 4%, washed 3 times in PBS and then attached to a thin SIM grade Zeiss 1.5 glass coverslip using Concanavalin A. Cells were fully sectioned by 50-65 slices with […] intervals taken at 60 ms exposures per slice using 5 rotations of the illumination grid. Brightfield images of the cells were also acquired using an X-Cite PC 120 EXFO Metal Halide lamp. Zen Black was used to process the images using automatic settings with the Raw Scale option selected. 3D stacks were then analyzed by using pixel classification and a custom Matlab script to determine the spot volumes and other features as follows. […] Features calculated at the labeled pixels and their local neighborhood are then used to train a pixel classifier based on a Random Forest ensemble learning method. […] Finally, the program generates an ascii file where the key features like volume and solidity 3D and descriptive statistics are listed for all detected nuclei and foci. The solidity factor is calculated as the proportion of pixels in the 3D convex hull. […]

chromatin fiber = assay: 3D distance between two differentially labeled genomic loci (chromatin flexibility); type: cell-based, Saccharomyces cerevisiae; conditions: for average inter-spot distance between lacI-GFP and TetR-mRFP tagged loci after DNA damage: loci 320 kbp apart on Chr XIV
From the text: Live microscopy was done on a temperature controllable Olympus IX81 microscope with a Yokogawa CSU-X1 scanning head equipped with two EM-CCD EvolveDelta (Photometrics) cameras, an ASI MS-2000 Z-piezo stage and a PlanApo x100, NA 1.45 total internal reflection fluorescence microscope oil objective and Visiview software. For mRFP-GFP or mRFP-CFP high-speed tracking, fluorophores were excited with lasers at 561 nm (mCherry or mRFP) and 491 nm (GFP) or 440 nm (CFP) and emitted fluorescence was acquired simultaneously on separate cameras (Semrock FF01-617/73-25 filter for mCherry/mRFP and Semrock FF02-525/40-25 filter for GFP or Semrock FF01-475/42-25 for CFP). High-speed time-lapse series were conducted taking 8 optical slices per stack either every 80 ms for 1 min or 300 ms for 2 min, with 10 ms exposure times per slice respectively. Time-lapse image stacks were analyzed as in Dion et al. 9, using a custom made ImageJ (FIJI) plug-in36 to extract coordinates of locus position from the movies. Phototoxicity was tested by exposing wild-type cells (GA-6879) to standard imaging conditions and following outgrowth for 5 h by morphological analysis, comparing them with unexposed cells. Time-series acquired from Strains GA-9227 and GA-9777 (Two-spot data) were deconvolved using Huygens Remote Manager, channel-aligned and cropped to contain one single cell/nucleus with the two respective fluorescent spots. Spot tracking over time was done with the ImageJ plugin TrackMate included in Fiji37. Boxplot graphs were generated by plotting all measured distances of treated or untreated cells. Relative MSD analysis was performed with KNIME38. For each frame, the distance vector of tracks in two channels was measured by selecting the two spots with minimal distance. The inventors performed an MSD analysis on the distance vectors for all frames and tracks with a maximum MSD(t) value bigger than 10 μm^2 were considered as outliers (due to mis-matching two distant tracks) and removed from the analysis. Relative MSD vs. t was averaged over all tracks and plotted using R.

| Compound | effect on DNA damage-induced H3 or H4 degradation (proteasome) | levels of the histone variant Htz1 (H2A.Z) [1] | loss of all core histones H2A, H2B, H3 and H4 (ratios of non-modified histone peptides, damage over control L/H) [1] | histone depletion in histone-shutdown strain with constitutive H3/H4 expression (histone H3/H4; growth in media with low level galactose, compared with cells with endogenous histone genes) | DDC activation (yH2A signal) (histone H3/H4; quantitative immunoblot) | relationship between histone H3/H4 loss and Zeocin treatment (histone H3/H4; quantitative immunoblot) | nucleosome occupancy within promoters and across coding regions (nucleosome occupancy) | time of Zeocin exposure within which histone H3 degradation occurred (Histone H3 (H3-CFP); H3-CFP fluorescence) [min] | Histone H3 degradation compared to undamaged cells (Histone H3 (H3-CFP); H3-CFP fluorescence, within 30 minutes of Zeocin exposure) [%] | DSBs per genome generated (Histone H3 (H3-CFP); pulse-treated for 1 h with Zeocin) | decompaction of S phase chromatin (3D TetR-mCherry foci volumes) (S phase chromatin) | average inter-spot distance between lacI-GFP and TetR-mRFP tagged loci after DNA damage (chromatin fiber; G1 cells, printed 0.97-1.2 (before-after)) [μm] | average inter-spot distance between lacI-GFP and TetR-mRFP tagged loci after DNA damage (chromatin fiber; S-phase cells, printed 0.99-1.12 (before-after)) [μm] | inter-spot dynamics and distances between CFP-lacI and TetR-mRFP tagged foci (chromatin fiber; loci 50 kbp apart on Chr III, real time) |
| --- | --- | --- | --- | --- | --- | --- | --- | --- | --- | --- | --- | --- | --- | --- |
| CC(C)C[C@@H](C=O)NC(=O)[C@H](CC(C)C)NC(=O)[C@H](CC(C)C)NC(=O)OCc1ccccc1 [MG132] (Cbz-Leu-Leu-Leu-aldehyde) | suppressed | – | – | – | – | – | – | – | – | – | – | – | – | – |
| Zeocin | – | remained stable | 20-40% | same depletion effect | robust DDC activation | dose-dependent relationship | drop in nucleosome occupancy | ≤ 30 | ~30 | 4-7 DSBs per genome | dose-dependent decompaction | 1.2 | 1.12 | robust increase |
